Results taken from patent publication US5789440A, “5,6-dihydropyrone derivatives as protease inhibitors and antiviral agents” (Warner-Lambert Company, priority 1994, dated 1998).
pEC50, pIC50: −log10 of the molar value. In brackets after ≈: the same amount, converted by molar mass.

Assays:
HIV-1 Protease = biological target: T1, HIV-1 Protease (Human immunodeficiency virus type 1 group M subtype B, UniProt P04585); assay: HIV protease inhibition (undecapeptide substrate cleavage, HPLC); type: biochemical; conditions: 37° C., 5 min, 40 μM substrate, pH 4.7, 2% DMSO, read-out: 50% INHIBITION CONCENTRATION
T1 construct: HIV-1 Protease; purchased Bachem Bioscience Inc
Experimental: 1.0 mM dithiothreitol (DTT) was prepared fresh daily in 0.1% polyethylene glycol (mw 8000) 80 mM NaOAc, 160 mM NaCl, 1.0 mM EDTA, and brought to pH 4.7 with HCl.
The enzyme is obtained from Bachem Bioscience Inc. The undiluted enzyme is thawed from -80° C. and diluted 50-fold with DTT buffer. The solution is always kept at 0° C. on ice water and used in the experiment within 20 minutes after thawing.
Substrate III from Bachem Bioscience Inc. is the undecapeptide H-His-Lys-Ala-Arg-Val-Leu-p-Nitrophenylalanine-Glu-Ala-Norleucine-Ser-NH2 (>97% purity). A 200 μM stock solution in DTT buffer is prepared and stored on ice. Substrate solution is prepared fresh daily.
10 mM inhibitor (I) in dimethyl sulfoxide (DMSO) is diluted to 200 μM with DTT buffer. From the 200 μM stock solution is made a 10 μM stock solution with 2% DMSO in DTT buffer. The two inhibitor solutions are used to make final [I] =100, 50, 20, 10, 5, 2, 1, 0.5 and 0 μM with 2% DMSO in DTT buffer in each reaction well (total inhibitor volume of 50 μl).
To each reaction well is added 20 μl of substrate (final concentration of 40 μM), 50 μl of inhibitor (at a concentration such that final dilution will produce the test concentration) and 20 μl of DTT buffer. The reaction plate (96 wells) is incubated at 37° C. for at least 5 minutes.
10 μl of the diluted protease is added to the reaction well while the reaction plate is shaking. Once shaken for 10 seconds, the plate is returned to the heating block at 37° C. (final reaction volume 100 μl.)
The reaction is incubated for 5 minutes at 37° C. The reaction is stopped by placing the reaction plate on the shaker and adding 20 μl of 10% trifluoroacetic acid (TFA) and shaking for 10 seconds. The amount of proteolysis is then determined by separation of noncleaved substrate and two cleaved products with reverse-phase HPLC, while measuring absorbance at 220 nm to determine the relative peak areas of the three components. The relative peak areas are used to calculate % conversion to product as a function of inhibitor concentration. The data are plotted as % Control (the ratio of % conversion in the presence and absence of inhibitor×100) versus inhibitor concentration and fitted with the equation Y=100/1+(X/IC50)^A, where IC50 is the inhibitor concentration at 50% inhibition and A is the slope of the inhibition curve.

[1] = tested on: Streptococcus pyogenes C203; assay: Antibacterial activity, microtitration dilution method; type: cell-based; conditions: read-out: minimum inhibitory concentration (MIC)
Description: (§1) The compounds of the invention display antibacterial activity when tested by the microtitration dilution method as described in Heifetz, et al., Antimicr. Agents. & Chemoth. 6: 124 (1974) which is incorporated herein by reference.
(§2) By use of the above referenced method, the following minimum inhibitory concentration values (MICs in μg/mL) were obtained for representative compounds of the invention vs. clinically relevant gram positive pathogens which have become highly resistant to conventional therapy in recent years.

[2] = tested on: Staphylococcus aureus UC-76; assay: as above; type: cell-based; conditions: UC76, read-out: minimum inhibitory concentration (MIC)
Description: as §1, §2

[3] = tested on: Enterococcus foecalis MGH2; assay: as above; type: cell-based; conditions: read-out: minimum inhibitory concentration (MIC)
Description: as §1, §2

[4] = tested on: Staphylococcus aureus H228; assay: as above; type: cell-based; conditions: read-out: minimum inhibitory concentration (MIC)
Description: as §1, §2

[5] = tested on: Streptococcus pneumonia 5V-1; assay: as above; type: cell-based; conditions: Streptococcus pneumoniae, 5V1, read-out: minimum inhibitory concentration (MIC)
Description: as §1, §2

HIV1iiib in H9 cells = assay: Antiviral activity in H9 cells (acute HIV-1 infection, reverse transcriptase assay); type: cell-based; conditions: Human immunodeficiency virus 1, multiplicity of infection 0.01, 0.1% DMSO, read-out: Concentration for 50% Protection
Experimental: Using the general methods of Pauwels et al., (J. Virol. Methods, 16, 171-185, 1987) and Mann et al. (AIDS Research and Human Retroviruses, 253-255, 1989 (anti-viral assays of active HIV-1 infection were performed in the H9 cell line. Cultures were batch infected in 1 ml of RPM1 1640 media/10% fetal calf serum containing 10^5 infectious doses of HIV1iiib for an effective multiplicity of infection of 0.01. After 2 hours of viral absorption, cells were washed once and palted in 96-wellmicrotiter plates at a density of 10^4 cells per well. Test compounds were added to produce the desired concentration of drug and 0.1% DMSO in a final volume of 200 μl. Uninfected parallel cultures were maintained for XTT cytotoxicity assay at 7 days post infection. Cultures were tested for viral replication by reverse transcriptase assay at 4 and 7 days post infection.

HIV = conditions: R. Nagorny et al., AIDS 7: 129-130 (1993); cited from earlier work

Row | SMILES | pIC50 (HIV-1 Protease) | MIC [1] | MIC [2] | MIC [3] | MIC [4] | MIC [5] | pEC50 (HIV1iiib in H9 cells) | inhibition of cell-free and cell-mediated HIV infection (in words) (HIV)
1 | O=C1OC(CCc2ccccc2)(c2ccccc2)CC(O)=C1SCc1ccc2c(c1)OCO2 (racemic) [Example 107, 3-(Benzo[1,3]dioxol-5-ylmethylthio)-5,6-dihydro-4-hydroxy-6-phenyl-6-(2-phenylethyl)-2H-pyran-2-one] | 6.96 | 50 µg/mL (≈ 109 µM) | 100 µg/mL (≈ 217 µM) | 50 µg/mL (≈ 109 µM) | 50 µg/mL (≈ 109 µM) | 50 µg/mL (≈ 109 µM) | 5.10 | 
2 | Cc1ccc(C(C)C)c(SC2=C(O)CC(CCc3ccc4c(c3)OCO4)(c3ccccc3)OC2=O)c1 (stereo not shown) [Example 133] |  | 25 µg/mL (≈ 49.7 µM) | 12.5 µg/mL (≈ 24.9 µM) | 25 µg/mL (≈ 49.7 µM) | 6.25 µg/mL (≈ 12.4 µM) | 12.5 µg/mL (≈ 24.9 µM) |  | 
3 | CC(=O)CC(c1ccccc1)c1c(O)c2ccccc2oc1=O (stereo not drawn) [Warfarin, 3-(α-acetonylbenzyl)-4-hydroxycoumarin] |  |  |  |  |  |  |  | inhibiting cell-free and cell-mediated HIV infection
